Experimental data taken from US20260176284A1, “Compounds with Anti-KRAS Mutated Tumor Activity” (Trasveda Ltd., priority 2022, published 2026).

Tested on: KRAS G12D mutated AGS human gastric adenocarcinoma cells
Experiment: Proliferation inhibition of KRAS G12D mutant AGS cells, another experiment with similar protocol (includes MRTX1133)
Type: cell-based
Conditions: Homo sapiens
Procedure: In another experiment, using a protocol similar to the one described above, the inhibitory activity of some representative compounds of the present invention against KRAS G12D mutated AGS human gastric adenocarcinoma cells was determined.
The synthesis of compound MRTX1133 was performed according to the method described in J. Med. Chem. 2022, 65, 4, 3123-3133.

`C#Cc1c(F)ccc2cc(O)cc(-c3c(F)cc4c(N5CC6CCC(C5)N6)nc(OC[C@]5(C)CN(C)CCC5=C)nc4c3F)c12` (atropisomer, axis not shown; (Ra)) [Example 40, (Ra)-4-(4-((1R,5S)-3,8-diazabicyclo[3.2.1]octan-3-yl)-2-(((S)-1,3-dimethyl-4-methylenepiperidin-3-yl)methoxy)-6,8-difluoroquinazolin-7-yl)-5-ethynyl-6-fluoronaphthalen-2-ol] and `C#Cc1c(F)ccc2cc(O)cc(-c3c(F)cc4c(N5CC6CCC(C5)N6)nc(OC[C@]5(C)CN(CC)CCC5=C)nc4c3F)c12` (atropisomer, axis not shown; (Ra)) [Example 63, (Ra)-4-(4-((1R,5S)-3,8-diazabicyclo[3.2.1]octan-3-yl)-2-(((S)-1-ethyl-3-methyl-4-methylenepiperi-din-3-yl)methoxy)-6,8-difluoroquinazolin-7-yl)-5-ethynyl-6-fluoronaph-thalen-2-ol] are within 1.5-fold of each other in IC50: 9 nM for the first, 11 nM for the second.

First: C#Cc1c(F)ccc2cc(O)cc(-c3c(F)cc4c(N5CC6CCC(C5)N6)nc(OC[C@]5(C)CN(C)CC[C@@H]5CF)nc4c3F)c12 (atropisomer, axis not shown; (Ra)) [Example 45-3]
Second: CCc1c(F)ccc2cc(O)cc(-c3c(F)cc4c(N5CC6CCC(C5)N6)nc(OC[C@]5(C)CN(C)CC[C@@H]5CF)nc4c3F)c12 [Example 99-1]
The IC50 of the first is 3.6-fold lower: 5 nM for the first, 18 nM for the second. The first is the more potent here.

Going from `C#Cc1c(F)ccc2cc(O)cc(-c3c(F)cc4c(N5CC6CCC(C5)N6)nc(OC[C@]5(C)CN(C6CC6)CCC5(F)F)nc4c3F)c12` (atropisomer, axis not shown; (Ra)) [Example 49, (Ra)-4-(4-((1R,5S)-3,8-diazabicyclo[3.2.1]octan-3-yl)-2-(((S)-1-cycloprop-yl-4,4-difluoro-3-methylpiperi-din-3-yl)methoxy)-6,8-difluoroquinazolin-7-yl)-5-ethynyl-6-fluoronaph-thalen-2-ol] to `C#Cc1c(F)ccc2cc(O)cc(-c3c(F)cc4c(N5C[C@H]6CC[C@@H](C5)N6)nc(OC[C@]5(C)CN(C)CCC56CC6)nc4c3F)c12` [Example 88, 4-(4-((1R,5S)-3,8-diazabicyclo[3.2.1]octan-3-yl)-2-(((S)-4,6-dimethyl-6-azaspiro[2.5]octan-4-yl)methoxy)-6,8-difluoroquinazolin-7-yl)-5-ethynyl-6-fluoronaphthalen-2-ol], the IC50 falls from 386 nM to 17 nM (23-fold).

Going from `C#Cc1c(F)ccc2cc(O)cc(-c3c(F)cc4c(N5CC6CCC(C5)N6)nc(OC[C@]5(C)CN(CC)CC[C@@H]5F)nc4c3F)c12` (atropisomer, axis not shown; (Ra)) [Example 50-1, (Ra)-4-(4-((1R,5S)-3,8-diazabicyclo[3.2.1]octan-3-yl)-2-(((35,4S)-1-ethyl-4-fluoro-3-methylpiper-idin-3-yl)methoxy)-6,8-difluoroquinazolin-7-yl)-5-ethynyl-6-fluoronaph-thalen-2-ol] to `C#Cc1c(F)ccc2cc(O)cc(-c3c(F)cc4c(N5CC6CCC(C5)N6)nc(OC[C@]5(C)CN(CC)CC[C@H]5F)nc4c3F)c12` (atropisomer, axis not shown; (Ra)) [Example 50-3, (Ra)-4-(4-((1R,5S)-3,8-diazabicyclo[3.2.1]octan-3-yl)-2-(((35,4R)-1-ethyl-4-fluoro-3-methylpiperi-din-3-yl)methoxy)-6,8-difluoroquinazolin-7-yl)-5-ethynyl-6-fluoronaph-thalen-2-ol], the IC50 falls from 15 nM to 7 nM (2.1-fold).

Compared with `C#Cc1c(F)ccc2cc(O)cc(-c3c(F)cc4c(N5CC6CCC(C5)N6)nc(OC[C@]5(C)CN(CC)CC[C@@H]5C)nc4c3F)c12` (atropisomer, axis not shown; (Ra)) [Example 52-1, (Ra)-4-(4-((1R,5S)-3,8-diazabicyclo[3.2.1]octan-3-yl)-2-(((35,4S)-1-ethyl-3,4-dimethyl-piperidin-3-yl)methoxy)-6,8-difluoroquinazolin-7-yl)-5-ethynyl-6-fluoro-naphthalen-2-ol], `C#Cc1c(F)ccc2cc(O)cc(-c3c(F)cc4c(N5C[C@H]6CC[C@@H](C5)N6)nc(OC[C@]5(C)CN(CC)CC/C5=C\F)nc4c3F)c12` [Example 79, 4-(4-((1R,5S)-3,8-diazabicyclo[3.2.1]octan-3-yl)-2-(((S,E)-1-ethyl-4-(fluoromethylene)-3-methylpiperidin-3-yl)methoxy)-6,8-difluoroquinazoline-7-yl)-5-ethynyl-6-fluoronaphthalene-2-ol] is 2.5-fold lower in IC50: 10 nM for the first, 4 nM for the second.

Going from `C#Cc1c(F)ccc2cc(O)cc(-c3ncc4c(N5CC6CCC(C5)N6)nc(OC[C@]5(CC)CN(C)CC[C@@H]5C(F)F)nc4c3F)c12` (racemic) [Example 396, (±)4-(4-((1R,5S)-3,8-diazabicyclo[3.2.1]octan-3-yl)-2-(((3S,4S)-4-(difluoromethyl)-3-ethyl-1-methylpiperidin-3-yl)methoxy)-8-fluoropyrido[4,3-A]pyrimidin-7-yl)-5-ethynyl-6-fluoronaphthalen-2-ol] to `[2H]C([2H])([2H])[C@@]1(COc2nc(N3CC4CCC(C3)N4)c3cnc(-c4cc(O)cc5ccc(F)c(C#C)c45)c(F)c3n2)CN(C)CC[C@@H]1C(F)F` (single isomer, unassigned) [Example 426, (Sa) or (Ra)-4-(4-((1R,5S)-3,8-diazabicyclo[3.2.1]octan-3-yl)-2-(((3S,4S)-4-(difluoromethyl)-1-methyl-3-(methyl-d3)piperidin-3-yl)methoxy)-8-fluoropyrido[4,3-d]pyrimidin-7-yl)-5-ethynyl-6-fluoronaphthalen-2-ol], the IC50 falls from 11 nM to 7 nM (1.6-fold). The second is the more potent here.

`Cc1cc(N)c(C#N)c(-c2c(F)cc3c(N4C[C@H]5CC[C@@H](C4)N5)nc(OC[C@]4(C)CN(C)CC[C@@H]4CF)nc3c2F)c1C(F)(F)F` (single isomer, unassigned) [Example 85-2] and `CN1CC[C@H](CF)[C@](C)(COc2nc(N3CC4CCC(C3)N4)c3cc(F)c(-c4c(C#N)c(N)cc(Cl)c4C(F)(F)F)c(F)c3n2)C1` (single isomer, unassigned) [Example 122-1, (Ra or Sa)-2-(4-((1R,5S)-3,8-diazabicyclo[3.2.1]octan-3-yl)-6,8-difluoro-2-(((3S,4S)-4-(fluoromethyl)-1,3-dimethylpiperidin-3-yl)methoxy)quinazolin-7-yl)-6-amino-4-chloro-3-(trifluoromethyl) benzonitrile·trifluoroacetate] are within 1.5-fold of each other in IC50: 38 nM for the first, 34 nM for the second.

Going from `CN1CC/C(=C\F)[C@](C)(COc2nc(N3CC4CCC(C3)N4)c3cc(Cl)c(-c4cccc5sc(N)c(C#N)c45)c(F)c3n2)C1` (single isomer, unassigned) [Example 313-2] to `CN1CC/C(=C\F)[C@](C)(COc2nc(N3CC4CCC(C3)N4)c3cc(F)c(-c4cccc5sc(N)c(C#N)c45)c(F)c3n2)C1` [Example 194], the IC50 rises from 17 nM to 97 nM (5.7-fold).

First: [2H]C([2H])([2H])N1CC[C@H](C(F)F)[C@](C)(C([2H])([2H])Oc2nc(N3CC4CCC(C3)N4)c3cc(Cl)c(-c4cccc5sc(N)c(C#N)c45)c(F)c3n2)C1 (single isomer, unassigned) [Example 315-2]
Second: CN1CC[C@H](C(F)F)[C@](C)(COc2nc(N3C[C@H]4CC[C@@H](C3)N4)c3cc(F)c(-c4cccc5sc(N)c(C#N)c45)c(F)c3n2)C1 [Example 190, 4-(4-((1R,5S)-3,8-diazabicyclo[3.2.1]octan-3-yl)-2-(((3S,4S)-4-(difluoromethyl)-1,3-dimethylpiperidin-3-yl)methoxy)-6,8-difluoroquinazolin-7-yl)-2-aminobenzo[b]thiophene-3-nitrile]
The IC50 of the first is 3.6-fold lower: 13 nM for the first, 47 nM for the second. The first is the more potent here.

First: CN1CC/C(=C\F)[C@](C)(COc2nc(N3CC4CCC(C3)N4)c3cc(C(F)(F)F)c(-c4cccc5sc(N)c(C#N)c45)c(F)c3n2)C1 (single isomer, unassigned) [Example 318-1]
Second: CN1CC/C(=C\F)[C@](C)(COc2nc(N3C[C@H]4CC[C@@H](C3)N4)c3cc(C(F)(F)F)c(-c4c(F)ccc5sc(N)c(C#N)c45)c(F)c3n2)C1 (single isomer, unassigned) [Example 362-1]
The IC50 of the first is 1.8-fold higher: 9 nM for the first, 5 nM for the second. The second is the more potent here.

Going from `CN1CC[C@H](C(F)F)[C@](C)(COc2nc(N3C[C@H]4CC[C@@H](C3)N4)c3cc(C(F)(F)F)c(-c4c(F)ccc5sc(N)c(C#N)c45)c(F)c3n2)C1` (single isomer, unassigned) [Example 363-1] to `C#Cc1c(F)ccc2cc(O)cc(-c3ncc4c(N5CC6CCC(C5)N6)nc(OC[C@]5(C)CN(C)CC[C@@H]5F)nc4c3F)c12` [Example 67-1], the IC50 rises from 4 nM to 77 nM (19-fold). The first is the more potent here.

Compared with `CN1CCC(F)(F)[C@](C)(COc2nc(N3CC4CCC(C3)N4)c3cc(F)c(-c4cc(O)cc(Cl)c4C4CC4)c(F)c3n2)C1` [Example 29-1A, 3-(4-((1R,5S)-3,8-diazabicyclo[3.2.1]octane-3-yl)-2-(((S)-4,4-difluoro-1,3-dimethylpiperidin-3-yl)methoxy)-6,8-difluoroquinolin-7-yl)-5-chloro-4-cyclopropylphenol·diformate], `C#Cc1c(F)ccc2cc(O)cc(-c3c(F)cc4c(N5C[C@H]6CC[C@@H](C5)N6)nc(OC[C@]5(C)CN(CC)CCC56CC6)nc4c3F)c12` [Example 95, 4-(4-((1R,5S)-3,8-diazabicyclo[3.2.1]octan-3-yl)-2-(((S)-6-ethyl-4-methyl-6-azaspiro[2.5]octan-4-yl)methoxy)-6,8-difluoroquinazolin-7-yl)-5-ethynyl-6-fluoronaphthalen-2-ol] is 79-fold lower in IC50: 630 nM for the first, 8 nM for the second.

First: C#Cc1c(F)ccc2cc(O)cc(-c3ncc4c(N5CC6CCC(C5)N6)nc(OC[C@]5(C)CN(C)CC[C@H]5F)nc4c3F)c12 [Example 67-3]
Second: C#Cc1c(F)ccc2cc(O)cc(-c3ncc4c(N5CC6CCC(C5)N6)nc(OC[C@]5(C)CN(C)CC[C@@H]5CF)nc4c3F)c12 [Example 71-2]
The IC50 of the first is 2.1-fold higher: 17 nM for the first, 8 nM for the second. The second is the more potent here.

`C#Cc1c(F)ccc2cc(O)cc(-c3nc(OC)c4c(N5C[C@H]6CC[C@@H](C5)N6)nc(OC[C@]5(C)CN(C)CCC5=C)nc4c3F)c12` [Example 258, 4-(4-((1R,5S)-3,8-diazabicyclo[3.2.1]octan-3-yl)-2-(((S)-1,3-dimethyl-4-methylenepiperidin-3-yl)methoxy)-8-fluoro-5-methoxypyrido[4,3-d]pyrimidin-7-yl)-5-ethynyl-6-fluoronaphthalen-2-ol] was tested, and the IC50 was 8 nM.
